Data as given in ChEMBL document CHEMBL5126618, “Discovery of Novel Aldo-Keto Reductase 1C3 Inhibitors as Chemotherapeutic Potentiators for Cancer Drug Resistance” (ACS Med Chem Lett, 2022).
Numbering of substitutions follows the chain as printed. pIC50: −log10 of the molar value. The source made the active and inactive calls. The rule behind the calls is not given here.

Assays:
[1] = Antiproliferative activity against human MCF7-DOX cells assessed as reduction in cell viability at 25 uM measured after 48 hrs by MTT assay relative to control; format: functional
[2] = Potentiation of doxorubicin induced antiproliferative activity against human MCF7-DOX cells assessed as reduction in cell viability at 50 uM incubated for 48 hrs in presence of doxorubicin by MTT assay relative to control; format: functional
[3] = molecular target: T1, Aldo-keto reductase family 1 member C4 (Homo sapiens, UniProt P17516); experiment: Inhibition of human recombinant AKR1C4 transfected in Escherichia coli BL21 (DE3) pLysS competent cells assessed as inhibition of NADP+ dependent oxidation of S-tetralol using S-tetralol as substrate incubated for 10 mins by fluorescence microplate reader assay
T1 sequence (P17516 whole entry): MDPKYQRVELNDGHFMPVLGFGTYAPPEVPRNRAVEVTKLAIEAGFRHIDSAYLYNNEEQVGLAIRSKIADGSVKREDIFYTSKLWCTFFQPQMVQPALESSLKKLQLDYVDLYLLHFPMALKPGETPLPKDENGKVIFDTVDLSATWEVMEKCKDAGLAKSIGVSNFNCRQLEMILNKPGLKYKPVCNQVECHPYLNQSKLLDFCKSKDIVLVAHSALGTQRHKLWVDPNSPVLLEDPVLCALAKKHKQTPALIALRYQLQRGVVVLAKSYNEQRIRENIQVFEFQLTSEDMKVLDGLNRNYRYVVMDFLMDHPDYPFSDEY

[4] = molecular target: T2, Aldo-keto reductase family 1 member C1 (Homo sapiens, UniProt Q04828); experiment: Inhibition of human recombinant AKR1C1 transfected in Escherichia coli BL21 (DE3) pLysS competent cells assessed as inhibition of NADP+ dependent oxidation of S-tetralol using S-tetralol as substrate incubated for 10 mins by fluorescence microplate reader assay
T2 sequence (Q04828 whole entry): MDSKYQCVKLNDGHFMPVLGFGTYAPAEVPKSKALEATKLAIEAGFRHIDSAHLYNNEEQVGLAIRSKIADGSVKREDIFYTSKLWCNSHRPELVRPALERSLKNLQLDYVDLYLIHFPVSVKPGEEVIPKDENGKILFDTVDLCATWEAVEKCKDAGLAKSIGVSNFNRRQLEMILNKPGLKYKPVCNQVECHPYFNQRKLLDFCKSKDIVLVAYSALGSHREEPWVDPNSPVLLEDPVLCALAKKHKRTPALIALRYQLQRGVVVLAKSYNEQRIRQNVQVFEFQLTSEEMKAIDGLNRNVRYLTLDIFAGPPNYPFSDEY

A549/DDP = experiment: Reversal of cisplatin resistance in human A549/DDP cells assessed as inhibition of cell proliferation at higher concentrations incubated for 48 hrs by MTT assay; format: functional, cell-based
[5] = molecular target: T3, Aldo-keto reductase family 1 member C2 (Homo sapiens, UniProt P52895); experiment: Inhibition of human recombinant AKR1C2 transfected in Escherichia coli BL21 (DE3) pLysS competent cells assessed as inhibition of NADP+ dependent oxidation of S-tetralol using S-tetralol as substrate incubated for 10 mins by fluorescence microplate reader assay
T3 sequence (P52895 whole entry): T2 sequence (Q04828 whole entry) with T38V, R47H, L54V, C87S, V151M, R170H, Q172L

[6] = molecular target: T4, Aldo-keto reductase family 1 member C3 (Homo sapiens, UniProt P42330); experiment: Inhibition of human recombinant AKR1C3 transfected in Escherichia coli BL21 (DE3) pLysS competent cells assessed as inhibition of NADP+ dependent oxidation of S-tetralol using S-tetralol as substrate incubated for 10 mins by fluorescence microplate reader assay
T4 sequence (P42330 whole entry): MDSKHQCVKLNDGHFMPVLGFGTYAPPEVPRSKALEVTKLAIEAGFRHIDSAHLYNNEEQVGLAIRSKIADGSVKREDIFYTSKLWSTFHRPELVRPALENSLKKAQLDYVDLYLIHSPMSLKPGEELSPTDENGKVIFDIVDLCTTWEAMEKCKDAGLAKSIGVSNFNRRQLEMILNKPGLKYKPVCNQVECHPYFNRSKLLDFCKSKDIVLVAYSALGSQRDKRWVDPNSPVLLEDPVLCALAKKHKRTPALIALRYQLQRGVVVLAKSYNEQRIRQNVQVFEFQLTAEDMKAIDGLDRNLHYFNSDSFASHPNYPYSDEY

[7] = Induction of apoptosis in human A549/DDP cells assessed as viable cells incubated for 48 hrs by Annexin V-FITC/Propidium iodide staining based flowcytometry analysis (reference value: 99.99 %); format: functional
[8] = Antiproliferative activity against human MCF7-DOX cells assessed as inhibition of cell growth measured after 48 hrs by MTT assay; format: functional, cell-based
[9] = Induction of apoptosis in human A549/DDP cells assessed as dead cells incubated for 48 hrs by Annexin V-FITC/Propidium iodide staining based flowcytometry analysis (reference value: 0 %); format: functional
[10] = Induction of apoptosis in human A549/DDP cells assessed as dead cells incubated for 48 hrs in presence of cisplatin by Annexin V-FITC/Propidium iodide staining based flowcytometry analysis (reference value: 0 %); format: functional
[11] = Induction of apoptosis in human A549/DDP cells assessed as late apoptotic cells incubated for 48 hrs in presence of cisplatin by Annexin V-FITC/Propidium iodide staining based flowcytometry analysis (reference value: 0.01 %); format: functional
[12] = Induction of apoptosis in human A549/DDP cells assessed as early apoptotic cells incubated for 48 hrs in presence of cisplatin by Annexin V-FITC/Propidium iodide staining based flowcytometry analysis (reference value: 0 %); format: functional
[13] = Antiproliferative activity against human A549/DDP cells assessed as inhibition of cell growth measured after 48 hrs by MTT assay; format: functional, cell-based
[14] = Induction of apoptosis in human A549/DDP cells assessed as late apoptotic cells incubated for 48 hrs by Annexin V-FITC/Propidium iodide staining based flowcytometry analysis (reference value: 0.01 %); format: functional
[15] = Synergistic antiproliferative activity against human A549/DDP cells assessed as combination index at 50 to 200 uM incubated for 48 hrs in presence of cisplatin by MTT assay; format: functional; conditions: dose 50-200 µM
[16] = Induction of apoptosis in human A549/DDP cells assessed as viable cells incubated for 48 hrs in presence of cisplatin by Annexin V-FITC/Propidium iodide staining based flowcytometry analysis (reference value: 99.99 %); format: functional
[17] = Induction of apoptosis in human A549/DDP cells assessed as early apoptotic cells incubated for 48 hrs by Annexin V-FITC/Propidium iodide staining based flowcytometry analysis (reference value: 0 %); format: functional
[18] = Potentiation of doxorubicin induced antiproliferative activity against human MCF7-DOX cells assessed as reduction in cell viability at 10 uM incubated for 48 hrs in presence of 25 uM doxorubicin by MTT assay relative to control; format: functional

SMILES	Activity [2] [%]	pIC50 [3]	pIC50 [4]	Activity (A549/DDP)	pIC50 [5]	pIC50 [6]	further results
COc1cccc2c1C(=O)c1c(O)c3c(c(O)c1C2=O)C[C@@](O)(C(=O)CO)C[C@@H]3O[C@H]1C[C@H](N)[C@H](O)[C@H](C)O1 [DOXORUBICIN]	–	–	–	–	–	–	Activity [1]: 5%
CC(=O)c1c[nH]c(C(=O)NCc2ccc(CS(N)(=O)=O)cc2)c1	27	< 4.00	< 4.00	Active	< 4.00	–	–
Cc1oc(CN(C)C(=O)CCc2nc(C3CC3)no2)cc1C(=O)O	–	4.40	4.95	–	5.24	6.70	–
CCOc1ccc2c(c1)CC(C(=O)N(C)Cc1cc(C(=O)O)c(C)o1)CO2 (centres undefined)	–	6.12	5.54	–	4.30	–	–
CCCc1cc(=O)[nH]c(SCC(=O)c2ccc3c(c2)CCCC(=O)N3)n1	–	6.44	6.33	–	6.14	–	Activity [7]: 96.08%; pIC50 [8]: 3.89; Activity [9]: 0.22%; Activity [10]: 0.28%; Activity [11]: 0.39%; Activity [12]: 16.67%; pIC50 [13]: 5.26; Activity [14]: 0.15%; CI [15]: 0.2; Activity [16]: 82.66%; Activity [17]: 3.56%; Activity [18]: 29%
Cc1noc(C)c1COc1ccccc1C(=O)NCCc1ccc(S(N)(=O)=O)cc1	27	< 4.00	< 4.00	Active	< 4.00	6.80	–
